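Following 48 hours of exposure in 96-well plates, responses at five concentrations were used to interpolate endpoints linearly. TGI denotes the concentration required for complete inhibition of growth.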
How the values were obtained:
Assay in all cases: NCI tumour cell line growth inhibition, 48 h
A498 renal = system: A498 renal
A549 NSCLC = system: A549 NSCLC
CAKI-1 renal = system: CAKI-1 renal
CCRF-CEM leukemia = system: CCRF-CEM leukemia
COLO 205 colon = system: COLO 205 colon
DLD-1 colon = system: DLD-1 colon
DMS 114 small cell lung = system: DMS 114 small cell lung
DMS 273 small cell lung = system: DMS 273 small cell lung
EKVX NSCLC = system: EKVX NSCLC
HCC-2998 colon = system: HCC-2998 colon
HCT-116 colon = system: HCT-116 colon
HCT-15 colon = system: HCT-15 colon
HL-60(TB) leukemia = system: HL-60(TB) leukemia
HOP-18 NSCLC = system: HOP-18 NSCLC
HOP-62 NSCLC = system: HOP-62 NSCLC
HOP-92 NSCLC = system: HOP-92 NSCLC
HT29 colon = system: HT29 colon
IGROV1 ovarian = system: IGROV1 ovarian
K-562 leukemia = system: K-562 leukemia
KM12 colon = system: KM12 colon
KM20L2 colon = system: KM20L2 colon
LOX IMVI melanoma = system: LOX IMVI melanoma
M19-MEL melanoma = system: M19-MEL melanoma
MALME-3M melanoma = system: MALME-3M melanoma
MCF7 breast = system: MCF7 breast
MOLT-4 leukemia = system: MOLT-4 leukemia
NCI-H226 lung = system: NCI-H226 lung
NCI-H23 lung = system: NCI-H23 lung
NCI-H460 lung = system: NCI-H460 lung
NCI-H522 lung = system: NCI-H522 lung
NCI/ADR-RES ovarian = system: NCI/ADR-RES ovarian
OVCAR-3 ovarian = system: OVCAR-3 ovarian
OVCAR-4 ovarian = system: OVCAR-4 ovarian
OVCAR-5 ovarian = system: OVCAR-5 ovarian
OVCAR-8 ovarian = system: OVCAR-8 ovarian
P388 leukemia = system: P388 leukemia
P388/ADR leukemia = system: P388/ADR leukemia
RPMI-8226 leukemia = system: RPMI-8226 leukemia
RXF 393 renal = system: RXF 393 renal
SF-268 CNS = system: SF-268 CNS
SF-295 CNS = system: SF-295 CNS
SF-539 CNS = system: SF-539 CNS
SK-MEL-2 melanoma = system: SK-MEL-2 melanoma
SK-MEL-28 melanoma = system: SK-MEL-28 melanoma
SK-MEL-5 melanoma = system: SK-MEL-5 melanoma
SK-OV-3 ovarian = system: SK-OV-3 ovarian
SN12C renal = system: SN12C renal
SN12K1 renal = system: SN12K1 renal
SNB-19 CNS = system: SNB-19 CNS
SNB-75 CNS = system: SNB-75 CNS
SNB-78 CNS = system: SNB-78 CNS
SW-620 colon = system: SW-620 colon
U251 CNS = system: U251 CNS
UACC-257 melanoma = system: UACC-257 melanoma
UACC-62 melanoma = system: UACC-62 melanoma
UO-31 renal = system: UO-31 renal
XF 498 CNS = system: XF 498 CNS

Structure (SMILES): Oc1c(CNCCCN2CCCC2)cc(Cl)c2cccnc12
- TGI (A498 renal): 29.9 µM
- TGI (A549 NSCLC): 11.3 µM
- TGI (CAKI-1 renal): 12.5 µM
- TGI (CCRF-CEM leukemia): 13.6 µM
- TGI (COLO 205 colon): 15.2 µM
- TGI (DLD-1 colon): 15 µM
- TGI (DMS 114 small cell lung): 9.24 µM
- TGI (DMS 273 small cell lung): 10.4 µM
- TGI (EKVX NSCLC): 12.4 µM
- TGI (HCC-2998 colon): 10.2 µM
- TGI (HCT-116 colon): 12.8 µM
- TGI (HCT-15 colon): 16.2 µM
- TGI (HL-60(TB) leukemia): 5.91 µM
- TGI (HOP-18 NSCLC): 20.6 µM
- TGI (HOP-62 NSCLC): 7.24 µM
- TGI (HOP-92 NSCLC): 33.7 µM
- TGI (HT29 colon): 17.3 µM
- TGI (IGROV1 ovarian): 20.7 µM
- TGI (K-562 leukemia): 7.38 µM
- TGI (KM12 colon): 28.8 µM
- TGI (KM20L2 colon): 14.4 µM
- TGI (LOX IMVI melanoma): 15.3 µM
- TGI (M19-MEL melanoma): 9.61 µM
- TGI (MALME-3M melanoma): 17.4 µM
- TGI (MCF7 breast): 15.9 µM
- TGI (MOLT-4 leukemia): 11.7 µM
- TGI (NCI-H226 lung): 19.2 µM
- TGI (NCI-H23 lung): 23.9 µM
- TGI (NCI-H460 lung): 10.6 µM
- TGI (NCI-H522 lung): 12.4 µM
- TGI (NCI/ADR-RES ovarian): 7.68 µM
- TGI (OVCAR-3 ovarian): 11.9 µM
- TGI (OVCAR-4 ovarian): 16.9 µM
- TGI (OVCAR-5 ovarian): 8.37 µM
- TGI (OVCAR-8 ovarian): 15.7 µM
- TGI (P388 leukemia): 9.18 µM
- TGI (P388/ADR leukemia): 6.32 µM
- TGI (RPMI-8226 leukemia): 16.3 µM
- TGI (RXF 393 renal): 25.2 µM
- TGI (SF-268 CNS): 18.4 µM
- TGI (SF-295 CNS): 5.49 µM
- TGI (SF-539 CNS): 10.1 µM
- TGI (SK-MEL-2 melanoma): 26.2 µM
- TGI (SK-MEL-28 melanoma): 23.6 µM
- TGI (SK-MEL-5 melanoma): 5.77 µM
- TGI (SK-OV-3 ovarian): 15 µM
- TGI (SN12C renal): 24.6 µM
- TGI (SN12K1 renal): 4.1 µM
- TGI (SNB-19 CNS): > 100 µM
- TGI (SNB-75 CNS): 36.3 µM
- TGI (SNB-78 CNS): 33.5 µM
- TGI (SW-620 colon): 17.1 µM
- TGI (U251 CNS): 17 µM
- TGI (UACC-257 melanoma): 24.2 µM
- TGI (UACC-62 melanoma): 5.79 µM
- TGI (UO-31 renal): 21.3 µM
- TGI (XF 498 CNS): 15.2 µM

Source: PubChem BioAssay (NCI)
